Results: the supplement of paper PMC10307832

Experiments:
Assay in all cases: relative viability (nuclei count vs DMSO), 5 days (fraction); higher = more cells survive
NCI-H2228 = system: NCI-H2228
In short: (§1)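 A single step with final 0.05% Triton X-100, 1% formaldehyde and 1 ug/ml Hoechst fixed the cells and stained nuclei 5 days after treatment. Lung cancer cell lines in 1536-well plates had been treated by pin tool the day after seeding with one drug alone or a fixed anchor-drug dose plus five library-drug doses (not always all listed) in √10 steps, and nuclei were counted on 4× images. Relative viability is the ratio of nuclei in treated wells to nuclei in vehicle wells, taken as the median of duplicate plates.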

COR-L 105 = system: COR-L 105
In short: as §1

HOP-62 = system: HOP-62
In short: as §1

NCI-H1755 = system: NCI-H1755
In short: as §1

PC-14 = system: PC-14
In short: as §1

NCI-H2170 = system: NCI-H2170
In short: as §1

UMC-11 = system: UMC-11
In short: as §1

EKVX = system: EKVX
In short: as §1

NCI-H1793 = system: NCI-H1793
In short: as §1

NCI-H1734 = system: NCI-H1734
In short: as §1

NCI-H2342 = system: NCI-H2342
In short: as §1

SK-MES-1 = system: SK-MES-1
In short: as §1

NCI-H838 = system: NCI-H838
In short: as §1

NCI-H647 = system: NCI-H647
In short: as §1

NCI-H2347 = system: NCI-H2347
In short: as §1

HCC-15 = system: HCC-15
In short: as §1

NCI-H2009 = system: NCI-H2009
In short: as §1

NCI-H1395 = system: NCI-H1395
In short: as §1

NCI-H1355 = system: NCI-H1355
In short: as §1

COR-L23 = system: COR-L23
In short: as §1

HARA = system: HARA
In short: as §1

NCI-H1993 = system: NCI-H1993
In short: as §1

NCI-H358 = system: NCI-H358
In short: as §1

Oc1nc(-c2ccc(C(F)(F)F)cc2)nc2c1CSCC2 [XAV939] + CCNC(=O)c1noc(-c2cc(C(C)C)c(O)cc2O)c1-c1ccc(CN2CCOCC2)cc1 [Luminespib] (partner 0.01 µM)
relative viability (NCI-H2228; first compound 0.08 µM): 0.156
relative viability (NCI-H2228; first compound 0.253 µM): 0.158
relative viability (NCI-H2228; first compound 0.8 µM): 0.152
relative viability (NCI-H2228; first compound 2.53 µM): 0.134
relative viability (COR-L 105; first compound 0.08 µM): 0.964
relative viability (COR-L 105; first compound 0.253 µM): 0.742
relative viability (COR-L 105; first compound 0.8 µM): 0.458
relative viability (COR-L 105; first compound 2.53 µM): 0.763
relative viability (HOP-62; first compound 0.08 µM): 1.01
relative viability (HOP-62; first compound 0.253 µM): 0.869
relative viability (HOP-62; first compound 0.8 µM): 1
relative viability (HOP-62; first compound 2.53 µM): 0.74
relative viability (NCI-H1755; first compound 0.08 µM): 0.522
relative viability (NCI-H1755; first compound 0.253 µM): 0.457
relative viability (NCI-H1755; first compound 0.8 µM): 0.361
relative viability (NCI-H1755; first compound 2.53 µM): 0.488
relative viability (PC-14; first compound 0.08 µM): 0.163
relative viability (PC-14; first compound 0.253 µM): 0.174
relative viability (PC-14; first compound 0.8 µM): 0.164
relative viability (PC-14; first compound 2.53 µM): 0.179
relative viability (NCI-H2170; first compound 0.08 µM): 0.764
relative viability (NCI-H2170; first compound 0.253 µM): 0.754
relative viability (NCI-H2170; first compound 0.8 µM): 0.704
relative viability (NCI-H2170; first compound 2.53 µM): 0.529
relative viability (UMC-11; first compound 0.08 µM): 1.04
relative viability (UMC-11; first compound 0.253 µM): 0.973
relative viability (UMC-11; first compound 0.8 µM): 1.02
relative viability (UMC-11; first compound 2.53 µM): 0.886
relative viability (EKVX; first compound 0.08 µM): 0.947
relative viability (EKVX; first compound 0.253 µM): 0.786
relative viability (EKVX; first compound 0.8 µM): 0.818
relative viability (EKVX; first compound 2.53 µM): 0.7
relative viability (NCI-H1793; first compound 0.08 µM): 0.223
relative viability (NCI-H1793; first compound 0.253 µM): 0.186
relative viability (NCI-H1793; first compound 0.8 µM): 0.176
relative viability (NCI-H1793; first compound 2.53 µM): 0.185
relative viability (NCI-H1734; first compound 0.08 µM): 0.223
relative viability (NCI-H1734; first compound 0.253 µM): 0.216
relative viability (NCI-H1734; first compound 0.8 µM): 0.185
relative viability (NCI-H1734; first compound 2.53 µM): 0.162
relative viability (NCI-H2342; first compound 0.08 µM): 0.645
relative viability (NCI-H2342; first compound 0.253 µM): 0.601
relative viability (NCI-H2342; first compound 0.8 µM): 0.546
relative viability (NCI-H2342; first compound 2.53 µM): 0.402
relative viability (SK-MES-1; first compound 0.08 µM): 0.915
relative viability (SK-MES-1; first compound 0.253 µM): 0.726
relative viability (SK-MES-1; first compound 0.8 µM): 0.654
relative viability (SK-MES-1; first compound 2.53 µM): 0.48
relative viability (NCI-H838; first compound 0.08 µM): 0.338
relative viability (NCI-H838; first compound 0.253 µM): 0.37
relative viability (NCI-H838; first compound 0.8 µM): 0.325
relative viability (NCI-H838; first compound 2.53 µM): 0.304
relative viability (NCI-H647; first compound 0.08 µM): 0.252
relative viability (NCI-H647; first compound 0.253 µM): 0.173
relative viability (NCI-H647; first compound 0.8 µM): 0.156
relative viability (NCI-H647; first compound 2.53 µM): 0.143
relative viability (NCI-H2347; first compound 0.08 µM): 0.419
relative viability (NCI-H2347; first compound 2.53 µM): 0.248
relative viability (HCC-15; first compound 0.08 µM): 0.465
relative viability (HCC-15; first compound 0.253 µM): 0.295
relative viability (HCC-15; first compound 0.8 µM): 0.302
relative viability (HCC-15; first compound 2.53 µM): 0.235
relative viability (NCI-H2009; first compound 0.08 µM): 1.09
relative viability (NCI-H2009; first compound 0.253 µM): 0.883
relative viability (NCI-H2009; first compound 0.8 µM): 1
relative viability (NCI-H2009; first compound 2.53 µM): 0.94
relative viability (NCI-H1395; first compound 0.08 µM): 0.614
relative viability (NCI-H1395; first compound 0.253 µM): 0.725
relative viability (NCI-H1395; first compound 0.8 µM): 0.721
relative viability (NCI-H1395; first compound 2.53 µM): 0.662
relative viability (NCI-H1355; first compound 0.08 µM): 0.814
relative viability (NCI-H1355; first compound 0.253 µM): 0.787
relative viability (NCI-H1355; first compound 0.8 µM): 0.632
relative viability (NCI-H1355; first compound 2.53 µM): 0.47
relative viability (COR-L23; first compound 0.08 µM): 0.929
relative viability (COR-L23; first compound 0.253 µM): 0.642
relative viability (COR-L23; first compound 0.8 µM): 0.615
relative viability (COR-L23; first compound 2.53 µM): 0.792
relative viability (HARA; first compound 0.08 µM): 1.29
relative viability (HARA; first compound 0.253 µM): 0.877
relative viability (HARA; first compound 0.8 µM): 0.865
relative viability (HARA; first compound 2.53 µM): 0.675
relative viability (NCI-H1993; first compound 0.08 µM): 0.779
relative viability (NCI-H1993; first compound 0.253 µM): 0.672
relative viability (NCI-H1993; first compound 0.8 µM): 0.748
relative viability (NCI-H1993; first compound 2.53 µM): 0.714
relative viability (NCI-H358; first compound 0.08 µM): 0.289
relative viability (NCI-H358; first compound 0.253 µM): 0.32
relative viability (NCI-H358; first compound 0.8 µM): 0.293
relative viability (NCI-H358; first compound 2.53 µM): 0.412
